According to patent publication US20120040951A1, “HETEROARYL COMPOUNDS USEFUL AS RAF KINASE INHIBITORS” (priority 2008, published 2012):

Columns and labels:
V599E Raf = V599E Raf (Homo sapiens, UniProt P15056, V600E); test: Biochemical FRET assay, mutant Raf (phosphorylation of MEK); settings: 0.125 nM V599E Raf, 100 nM biotin-MEK, 25 μM ATP, read-out: Raf (mut) inhibition
Protocol: (1) Biochemical FRET Assay […]
Inhibitors were diluted 4-fold in 100% DMSO and added to a final concentration of 10 μM to 40 μM to a solution containing 100 nM biotin-MEK, 0.125 nM V599E Raf in 50 mM HEPES, pH 7.4, 60 mM NaCl, 3 mM MgCl2, 2 mM DTT, 0.25 mM MnCl2, 0.01% BSA, and 0.01% Tween-20 and incubated for 20 minutes at room temperature. The kinase reaction was started by the addition of 25 μM ATP to a final volume of 45 μl and allowed to progress for 60 minutes. The reaction was stopped with 15 mM EDTA and 20 nM Streptavidin-APC, 2.5 nM Polyclonal anti p-MEK1/2 (Ser217/221), 2.5 nM Eu-labeled anti-rabbit IgG were added in Lance detection buffer and 5% Superblock in PBS for a final volume of 100 μl. The detection reaction was incubated for 90 minutes at room temperature and then read on an Analyst plate reader using standard TR-FRET (time resolved fluorescence resonance energy transfer) settings for Eu and APC.
Compounds having an activity designated as “A” provided an IC50≦100 nM; compounds having an activity designated as “B” provided an IC50 of 100-1000 nM; and compounds having an activity designated as “C” provided an IC50 of 1000-10,000 nM.

[1] = system: phospho-ERK in melanoma derived WM-266-4 cells; test: Mechanistic cellular assay for Raf kinase activity (phospho-ERK, Bio-Plex); assay type: cell-based; settings: Homo sapiens, treated 1-2 hr at 37° C., serum free medium, read-out: pERK EC50
How it was run: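 WM-266-4 melanoma cells (wild-type/V600D BRaf) grown overnight in 10% FBS RPMI, then treated 1–2 h at 37 °C in serum-free RPMI with eight 3-fold dilutions of compound (from 5 mM DMSO stock, 1000× dilution). Lysate phospho-ERK1,2 quantified by Bio-Plex bead immunoassay.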

Sequence of V599E Raf (P15056 whole entry V600E): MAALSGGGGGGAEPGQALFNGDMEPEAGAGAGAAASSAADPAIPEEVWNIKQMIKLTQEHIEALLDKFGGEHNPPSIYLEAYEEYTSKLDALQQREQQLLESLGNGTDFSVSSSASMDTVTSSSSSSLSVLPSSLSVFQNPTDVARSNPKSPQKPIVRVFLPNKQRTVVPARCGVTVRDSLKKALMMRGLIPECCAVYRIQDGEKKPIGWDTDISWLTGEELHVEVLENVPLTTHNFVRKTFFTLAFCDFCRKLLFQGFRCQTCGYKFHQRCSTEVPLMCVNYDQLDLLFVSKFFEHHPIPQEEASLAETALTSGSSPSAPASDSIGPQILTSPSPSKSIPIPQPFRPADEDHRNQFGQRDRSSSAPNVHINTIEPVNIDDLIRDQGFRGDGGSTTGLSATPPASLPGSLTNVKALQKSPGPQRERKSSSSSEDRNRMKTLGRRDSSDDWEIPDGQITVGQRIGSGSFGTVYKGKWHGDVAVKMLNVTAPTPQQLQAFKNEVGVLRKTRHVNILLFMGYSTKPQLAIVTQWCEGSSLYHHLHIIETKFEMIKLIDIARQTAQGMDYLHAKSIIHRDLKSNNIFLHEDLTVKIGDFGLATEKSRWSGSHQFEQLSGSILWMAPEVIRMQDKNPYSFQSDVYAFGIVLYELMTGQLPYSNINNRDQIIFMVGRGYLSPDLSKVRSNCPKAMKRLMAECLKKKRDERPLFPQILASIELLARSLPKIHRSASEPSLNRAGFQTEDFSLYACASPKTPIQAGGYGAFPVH

Row | Structure (SMILES) | IC50 (V599E Raf) [nM] | EC50 [1] [nM]
1 | O=C(NCc1cnc(Nc2ccc(C(F)(F)F)cc2)s1)c1ccc2ncccc2c1 [Example 189] | ≤ 100 | 1000 to 10000
2 | CC(NC(=O)c1cc2c(cn1)ncn2C(CO)CO)c1cnc(Nc2ccc(C(F)(F)F)cc2)s1 (centres unmarked) [Example 32] | ≤ 100 | 1000 to 10000
3 | Cc1nc(C)c(C(=O)N[C@H](C)c2ncc(C(=O)Nc3cc(C(F)(F)F)c(Cl)cn3)s2)s1 [Example 101] | ≤ 100 | 1000 to 10000
4 | C[C@@H](NC(=O)c1ccc2[nH]c(CO)nc2c1)c1ncc(C(=O)Nc2cc(C(F)(F)F)c(Cl)cn2)s1 [Example 55] | ≤ 100 | 1000 to 10000
5 | C[C@@H](NC(=O)c1cnn2ccccc12)c1cc(C(=O)Nc2nc3ccc(F)cc3s2)on1 [Example 210] | 100 to 1000 | 
6 | C[C@@H](NC(=O)c1ccc2[nH]nnc2c1)c1ncc(C(=O)Nc2cc(C(F)(F)F)c(Cl)cn2)s1 [Example 57] | ≤ 100 | 1000 to 10000
7 | C[C@@H]1[C@]2(C)CC[C@@]1(C)[C@@H](NC(=O)c1cc([C@@H](C)NC(=O)c3cnn4ccccc34)no1)C2 [Example 215] | 1000 to 10000 | 
8 | C[C@@H](NC(=O)c1cnn2ccccc12)c1cc(C(=O)Nc2nc3cc(Cl)ccc3o2)on1 [Example 212] | ≤ 100 | 1000 to 10000
9 | Cc1nc(C(C)NC(=O)c2cc3c(cn2)ncn3C)c(C)nc1Nc1ccc(C(F)(F)F)cc1 (centres unmarked) [Example 341] | 100 to 1000 | 1000 to 10000
10 | C[C@@H](NC(=O)c1csc(-c2ccncc2)n1)c1ncc(C(=O)Nc2cc(C(F)(F)F)c(Cl)cn2)s1 [Example 97] | ≤ 100 | 1000 to 10000
11 | CCCNc1ncc(C(=O)N[C@H](C)c2ncc(C(=O)Nc3cc(C(F)(F)F)c(Cl)cn3)s2)n1C [Example 153] | 100 to 1000 | 1000 to 10000
12 | C[C@@H](NC(=O)c1cnc(N2CCN(C)CC2)s1)c1ncc(C(=O)Nc2cc(C(F)(F)F)c(Cl)cn2)s1 [Example 106] | ≤ 100 | 1000 to 10000
13 | C[C@@H](NC(=O)c1cnn2ccccc12)c1cc(C(=O)NC2C[C@@H]3CC[C@H]2C3)on1 (some centres unmarked) [Example 213] | 1000 to 10000 | 
14 | C[C@@H](NC(=O)c1cnn2ccccc12)c1cc(C(=O)Nc2nc(C(C)(C)C)ncc2N)no1 [Example 228] | 100 to 1000 | 
15 | C[C@@H](NC(=O)c1cnn2ccccc12)c1cc(C(=O)NC2CC(C)(C)NC(C)(C)C2)on1 [Example 216] | 1000 to 10000 | 
16 | C[C@@H](NC(=O)c1cnc2ncccn12)c1ncc(C(=O)Nc2cc(C(F)(F)F)c(Cl)cn2)s1 [Example 137] |  | 100 to 1000
17 | CCc1nc2cnc(C(=O)NC(C)c3ncc(Nc4ccc(C(F)(F)F)cc4)s3)cn2c1NC(C)(C)CC(C)(C)C (centres unmarked) [Example 306] |  | 1000 to 10000
18 | Cc1ccc(NC(=O)c2cc(C(C)(C)NC(=O)c3cnn4ccccc34)on2)cc1C(F)(F)F [Example 230] | 100 to 1000 | 
19 | CC(NC(=O)c1cnn2cc(-c3cccnc3F)ccc12)c1nc(C(=O)Nc2cc(C(F)(F)F)c(Cl)cn2)cs1 (centres unmarked) [Example 324] |  | 100 to 1000
20 | CC(NC(=O)c1cc2c(cn1)ncn2CC(N)=O)c1cnc(Nc2ccc(C(F)(F)F)cc2)s1 (centres unmarked) [Example 355] |  | 1000 to 10000
21 | CCN1CC(n2cnc3cnc(C(=O)NC(C)c4cnc(Nc5ccc(C(F)(F)F)nc5)s4)cc32)C1 (centres unmarked) [Example 294] |  | 100 to 1000
22 | C[C@@H](NC(=O)c1cnc(NCCN2CCCC2)s1)c1ncc(C(=O)Nc2cc(C(F)(F)F)c(Cl)cn2)s1 [Example 105] |  | 100 to 1000
23 | C[C@@H](NC(=O)c1cnc2n1CCN2C)c1ncc(C(=O)Nc2cc(C(F)(F)F)c(Cl)cn2)s1 [Example 172] |  | 100 to 1000
24 | CC(NC(=O)c1cc2c(cn1)ncn2C)c1cnc(Nc2cc(Cl)ncn2)s1 (centres unmarked) [Example 260] |  | 1000 to 10000
25 | CC(NC(=O)c1cc2c(cn1)ncn2C)c1cnc(Nc2ccc(Cl)c(C(F)(F)F)c2)s1 (centres unmarked) [Example 258] |  | 100 to 1000
26 | CC(NC(=O)c1cc2cnn(C)c2cn1)c1cnc(Nc2ccc(C(F)(F)F)cc2)s1 (centres unmarked) [Example 204] |  | 1000 to 10000
27 | C[C@@H](NC(=O)c1cnc2n1CC(=O)N2)c1ncc(C(=O)Nc2cc(C(F)(F)F)c(Cl)cn2)s1 [Example 170] |  | 100 to 1000

Further lines, results first:

Row | IC50 (V599E Raf) [nM] | EC50 [1] [nM] | Structure (SMILES)
28 | ≤ 100 | ≤ 100 | C[C@@H](NC(=O)c1cc2c(cn1)ncn2C)c1cnc(Nc2cnc(C(C)(C)C)nc2)s1 [Example 241]
29 | ≤ 100 | 100 to 1000 | CCNCCn1cnc2cnc(C(=O)NC(C)c3cnc(Nc4ccc(C(F)(F)F)cc4)s3)cc21 (centres unmarked) [Example 34]
30 | ≤ 100 | ≤ 100 | Cc1ccc(NC(=O)c2cc([C@@H](C)NC(=O)c3cnn4ccccc34)no2)cc1C(F)(F)F [Example 218]
31 | ≤ 100 | ≤ 100 | C[C@@H](NC(=O)c1ccc2ncccc2c1)c1ncc(C(=O)Nc2cc(C(F)(F)F)c(Cl)cn2)s1 [Example 58]
32 | ≤ 100 | ≤ 100 | CCn1ncc(C(=O)N[C@H](C)c2ncc(C(=O)Nc3cc(C(F)(F)F)c(Cl)cn3)s2)c1C [Example 126]
33 | ≤ 100 | 100 to 1000 | CC(NC(=O)c1cc2c(cn1)ncn2C)c1cnc(Nc2ccc(C(F)(F)F)nc2Cl)s1 (centres unmarked) [Example 263]
34 | ≤ 100 | ≤ 100 | CC(NC(=O)c1cc2c(cn1)ncn2C)c1cnc(Nc2cc(C(C)(C)C)ccc2F)s1 (centres unmarked) [Example 279]
35 | ≤ 100 | 100 to 1000 | CC(C)Oc1cc(C(F)(F)F)ccc1Nc1ncc(C(C)NC(=O)c2cc3c(cn2)ncn3C)s1 (centres unmarked) [Example 289]
36 | ≤ 100 | ≤ 100 | CC(NC(=O)c1cc2c(cn1)nc(N)n2C)c1cnc(Nc2ccc(C(F)(F)F)cc2)cn1 (centres unmarked) [Example 201]
37 | ≤ 100 | 100 to 1000 | CCn1cc2cc(C(=O)NC(C)c3cnc(Nc4ccc(C(F)(F)F)cc4)s3)ncc2n1 (centres unmarked) [Example 207]
38 | 100 to 1000 | 100 to 1000 | C[C@@H](NC(=O)c1cnn(C)c1CN1CCC(F)(F)C1)c1ncc(C(=O)Nc2cc(C(F)(F)F)c(Cl)cn2)s1 [Example 130]
39 | ≤ 100 | ≤ 100 | CC(C)N1CC(n2cnc3cnc(C(=O)N[C@H](C)c4cnc(Nc5ccc(C(F)(F)F)cc5)s4)cc32)C1 [Example 183]
40 | ≤ 100 | 100 to 1000 | CC(NC(=O)c1ccc2nccnc2c1)c1cnc(Nc2ccc(C(F)(F)F)cc2)s1 (centres unmarked) [Example 73]
41 | 100 to 1000 | ≤ 100 | C[C@@H](NC(=O)c1cnn2cc(-c3cccnc3)ccc12)c1cc(C(=O)Nc2cccc(OC(F)(F)F)c2)on1 [Example 332]
42 | ≤ 100 | ≤ 100 | C[C@@H](NC(=O)c1cc2c(cn1)ncn2C)c1ncc(C(=O)Nc2cc(C(F)(F)F)c(Cl)cn2)s1 [Example 42]
43 | 100 to 1000 | 100 to 1000 | C[C@@H](NC(=O)c1cnn(C)c1CN1CCCCC1)c1ncc(C(=O)Nc2cc(C(F)(F)F)c(Cl)cn2)s1 [Example 128]
44 |  | ≤ 100 | CC(NC(=O)c1cc2c(cn1)ncn2C(C)(C)C)c1cnc(Nc2ccc(C(F)(F)F)cc2)s1 (centres unmarked) [Example 13]
45 |  | ≤ 100 | CC(NC(=O)c1cc2c(cn1)ncn2C(C)C)c1cnc(Nc2ccc(C(F)(F)F)cc2)s1 (centres unmarked) [Example 12]
46 |  | ≤ 100 | CC(C)Cn1cnc2cnc(C(=O)NC(C)c3cnc(Nc4ccc(C(F)(F)F)cc4)s3)cc21 (centres unmarked) [Example 15]
47 |  | ≤ 100 | CC(NC(=O)c1cc2c(cn1)ncn2C1CCOCC1)c1cnc(Nc2ccc(C(F)(F)F)cc2)s1 (centres unmarked) [Example 9]
48 |  | ≤ 100 | C[C@@H](NC(=O)c1cnc2n1CCCN2)c1ncc(C(=O)Nc2cc(C(F)(F)F)c(Cl)cn2)s1 [Example 166]
49 |  | ≤ 100 | Cc1ncc(C(=O)N[C@H](C)c2ncc(C(=O)Nc3cc(C(F)(F)F)c(Cl)cn3)s2)n1-c1cccnc1 [Example 162]
50 |  | ≤ 100 | Cc1c(C(=O)N[C@H](C)c2ncc(C(=O)Nc3cc(C(F)(F)F)c(Cl)cn3)s2)cnn1C [Example 115]
51 |  | ≤ 100 | COCCn1c(C(=O)N[C@H](C)c2ncc(C(=O)Nc3cc(C(F)(F)F)c(Cl)cn3)s2)cnc1C [Example 152]
